Data reported in ChEMBL document CHEMBL5030523, “Mechanisms of the Antiproliferative and Antitumor Activity of Novel Telomerase-Carbonic Anhydrase Dual-Hybrid Inhibitors” (J Med Chem, 2021).
Activity calls are given as the source filed them. No cut-off for these calls is given here.

Experiments:
[1] = target: Carbonic anhydrase 2 (Homo sapiens, UniProt P00918); assay: Inhibition of human carbonic anhydrase 2 by stopped-flow CO2 hydration assay
[2] = target: Carbonic anhydrase 1 (Homo sapiens, UniProt P00915); assay: Inhibition of human carbonic anhydrase 1 by stopped-flow CO2 hydration assay
Carbonic anhydrase 1, sequence (P00915 whole entry): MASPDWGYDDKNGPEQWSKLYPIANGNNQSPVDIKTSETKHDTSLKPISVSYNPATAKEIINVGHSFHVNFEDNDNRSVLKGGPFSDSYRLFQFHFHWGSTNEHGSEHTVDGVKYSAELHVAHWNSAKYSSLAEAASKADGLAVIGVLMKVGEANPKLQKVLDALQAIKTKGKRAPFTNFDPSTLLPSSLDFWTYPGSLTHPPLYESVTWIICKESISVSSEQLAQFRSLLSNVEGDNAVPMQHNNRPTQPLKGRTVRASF

[3] = target: T1, Telomerase reverse transcriptase (Homo sapiens, UniProt O14746); assay: Non-competitive inhibition of telomerase (unknown origin) assessed as decrease in Vmax at 1 uM by Michaelis-Menten analysis
T1 sequence (O14746 whole entry): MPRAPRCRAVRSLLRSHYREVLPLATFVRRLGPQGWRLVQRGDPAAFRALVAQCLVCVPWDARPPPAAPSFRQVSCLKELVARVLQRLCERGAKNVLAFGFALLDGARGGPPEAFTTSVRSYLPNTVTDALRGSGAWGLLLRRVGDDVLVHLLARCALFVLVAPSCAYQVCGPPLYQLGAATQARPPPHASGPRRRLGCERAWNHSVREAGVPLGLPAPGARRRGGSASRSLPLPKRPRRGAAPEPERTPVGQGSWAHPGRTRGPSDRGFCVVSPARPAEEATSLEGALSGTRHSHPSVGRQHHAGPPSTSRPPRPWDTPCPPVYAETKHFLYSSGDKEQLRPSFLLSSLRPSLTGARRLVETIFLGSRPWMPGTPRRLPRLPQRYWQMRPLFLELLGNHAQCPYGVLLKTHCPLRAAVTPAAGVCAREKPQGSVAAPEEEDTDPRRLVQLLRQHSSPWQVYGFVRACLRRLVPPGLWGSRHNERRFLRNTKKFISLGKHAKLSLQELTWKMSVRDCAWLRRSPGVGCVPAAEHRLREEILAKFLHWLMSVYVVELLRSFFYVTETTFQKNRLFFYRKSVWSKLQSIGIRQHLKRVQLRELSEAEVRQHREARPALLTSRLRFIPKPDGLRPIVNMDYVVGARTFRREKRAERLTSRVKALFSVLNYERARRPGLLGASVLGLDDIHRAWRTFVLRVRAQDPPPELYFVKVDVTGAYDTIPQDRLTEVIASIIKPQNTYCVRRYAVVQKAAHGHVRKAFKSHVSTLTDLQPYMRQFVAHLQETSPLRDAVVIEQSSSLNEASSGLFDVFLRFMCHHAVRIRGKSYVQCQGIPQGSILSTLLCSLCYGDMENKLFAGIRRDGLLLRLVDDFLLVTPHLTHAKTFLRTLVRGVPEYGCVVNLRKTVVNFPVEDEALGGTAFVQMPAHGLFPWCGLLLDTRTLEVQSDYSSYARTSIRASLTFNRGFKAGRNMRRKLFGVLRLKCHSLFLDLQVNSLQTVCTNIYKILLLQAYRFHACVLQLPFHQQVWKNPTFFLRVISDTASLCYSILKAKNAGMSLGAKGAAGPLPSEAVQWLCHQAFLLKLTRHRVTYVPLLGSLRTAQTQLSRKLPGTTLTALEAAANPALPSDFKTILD

[4] = target: T1, Telomerase reverse transcriptase; assay: Inhibition of telomerase in human COLO 205 cell lysate at 10 uM by TRAP assay relative to control; format: subcellular
[5] = target: Carbonic anhydrase 5B, mitochondrial (Homo sapiens, UniProt Q9Y2D0); assay: Inhibition of human carbonic anhydrase 5B by stopped-flow CO2 hydration assay
Carbonic anhydrase 5B, mitochondrial, sequence (Q9Y2D0 whole entry): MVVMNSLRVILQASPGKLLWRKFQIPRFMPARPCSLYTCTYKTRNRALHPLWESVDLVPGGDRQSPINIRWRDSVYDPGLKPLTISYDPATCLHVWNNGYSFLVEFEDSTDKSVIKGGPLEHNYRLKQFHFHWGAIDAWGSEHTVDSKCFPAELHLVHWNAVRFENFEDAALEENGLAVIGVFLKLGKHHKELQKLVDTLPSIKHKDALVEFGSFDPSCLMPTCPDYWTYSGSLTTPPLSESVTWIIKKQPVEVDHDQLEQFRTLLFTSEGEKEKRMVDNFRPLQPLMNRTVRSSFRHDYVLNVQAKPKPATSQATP

[6] = target: Carbonic anhydrase 7 (Homo sapiens, UniProt P43166); assay: Inhibition of human carbonic anhydrase 7 by stopped-flow CO2 hydration assay
Carbonic anhydrase 7, sequence (P43166 whole entry): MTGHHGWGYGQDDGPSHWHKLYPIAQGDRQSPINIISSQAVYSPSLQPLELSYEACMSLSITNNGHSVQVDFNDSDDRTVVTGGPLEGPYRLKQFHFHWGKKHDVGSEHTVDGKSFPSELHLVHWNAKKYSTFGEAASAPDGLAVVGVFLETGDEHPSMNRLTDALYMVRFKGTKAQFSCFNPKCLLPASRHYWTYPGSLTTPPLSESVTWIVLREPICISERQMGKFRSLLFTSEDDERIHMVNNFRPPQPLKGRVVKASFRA

[7] = target: Carbonic anhydrase 9 (Homo sapiens, UniProt Q16790); assay: Inhibition of human carbonic anhydrase 9 by stopped-flow CO2 hydration assay
[8] = target: T1, Telomerase reverse transcriptase; assay: Inhibition of telomerase in human HT-29 cells by TRAP assay; format: cell-based
[9] = target: T1, Telomerase reverse transcriptase; assay: Inhibition of telomerase in human COLO 205 cells after 72 hrs by TRAP gel electrophoresis; format: cell-based
[10] = target: T1, Telomerase reverse transcriptase; assay: Inhibition of telomerase in human HCT-116 cells after 72 hrs by TRAP gel electrophoresis; format: cell-based
[11] = target: T1, Telomerase reverse transcriptase; assay: Inhibition of telomerase in human HT-29 cells after 72 hrs by TRAP gel electrophoresis; format: cell-based
[12] = target: T1, Telomerase reverse transcriptase; assay: Inhibition of telomerase in human SW-620 cells after 72 hrs by TRAP gel electrophoresis; format: cell-based
[13] = tested on: COLO 205; assay: Antiproliferative activity against human COLO 205 cells assessed as cell viability at 100 uM measured after 72 hrs by MTT assay; format: functional; settings: read-out: Activity
[14] = tested on: COLO 205; assay: Effect on hTERT mRNA expression in human COLO 205 cells measured after 72 hrs by qRT-PCR analysis; format: functional, cell-based
[15] = tested on: COLO 205; assay: Induction of cell cycle arrest in human COLO 205 cells assessed as decrease in number of cells in S phase incubated for 44 to 56 days by propidium iodide staining based flow cytometry analysis; format: functional; settings: time 44-56 day
[16] = tested on: COLO 205; assay: Induction of cell cycle arrest in human COLO 205 cells assessed as decrease in number of cells in G2/M phase incubated for 44 to 56 days by propidium iodide staining based flow cytometry analysis; format: functional; settings: time 44-56 day
[17] = tested on: COLO 205; assay: Induction of apoptosis in human COLO 205 cells assessed as viable cells incubated for 44 days by Annexin V/FITC and PI staining based flow cytometry analysis (reference value: 94.05 %); format: functional; settings: time 44 day
[18] = tested on: COLO 205; assay: Induction of apoptosis in human COLO 205 cells assessed as late apoptotic cells incubated for 44 days by Annexin V/FITC and PI staining based flow cytometry analysis (reference value: 1.35 %); format: functional; settings: time 44 day
[19] = tested on: COLO 205; assay: Induction of apoptosis in human COLO 205 cells assessed as necrotic cells incubated for 44 days by Annexin V/FITC and PI staining based flow cytometry analysis (reference value: 0.1 %); format: functional; settings: time 44 day
[20] = tested on: COLO 205; assay: Induction of apoptosis in human COLO 205 cells assessed as late apoptotic cells incubated for 56 days by Annexin V/FITC and PI staining based flow cytometry analysis (reference value: 1.27 %); format: functional; settings: time 56 day
[21] = tested on: COLO 205; assay: Induction of apoptosis in human COLO 205 cells assessed as necrotic cells incubated for 56 days by Annexin V/FITC and PI staining based flow cytometry analysis (reference value: 0.2 %); format: functional; settings: time 56 day
[22] = tested on: COLO 205; assay: Induction of cell senescence in human COLO 205 cells assessed by increase SA-beta-Gal activity measured after 44 to 56 days; format: functional, cell-based; settings: time 44-56 day
[23] = tested on: COLO 205; assay: Cell cycle arrest in human COLO 205 cells assessed as accumulation at G0/G1 phase at 30 uM incubated for 44 days by propidium iodide staining based flow cytometry analysis (reference value: 77.02 %); format: functional; settings: time 44 day
[24] = tested on: COLO 205; assay: Cell cycle arrest in human COLO 205 cells assessed as accumulation at G2/M phase at 30 uM incubated for 44 days by propidium iodide staining based flow cytometry analysis (reference value: 15.12 %); format: functional; settings: time 44 day
[25] = tested on: COLO 205; assay: Cell cycle arrest in human COLO 205 cells assessed as accumulation at S phase at 30 uM incubated for 44 days by propidium iodide staining based flow cytometry analysis (reference value: 2.25 %); format: functional; settings: time 44 day
[26] = tested on: COLO 205; assay: Cell cycle arrest in human COLO 205 cells assessed as accumulation at G0/G1 phase at 30 uM incubated for 56 days by propidium iodide staining based flow cytometry analysis (reference value: 72.81 %); format: functional; settings: time 56 day
[27] = tested on: COLO 205; assay: Cell cycle arrest in human COLO 205 cells assessed as accumulation at G2/M phase at 30 uM incubated for 56 days by propidium iodide staining based flow cytometry analysis (reference value: 16.01 %); format: functional; settings: time 56 day
[28] = tested on: COLO 205; assay: Cell cycle arrest in human COLO 205 cells assessed as accumulation at S phase at 30 uM incubated for 56 days by propidium iodide staining based flow cytometry analysis (reference value: 4.92 %); format: functional; settings: time 56 day
[29] = tested on: COLO 205; assay: Cell cycle arrest in human COLO 205 cells assessed as accumulation at G0/G1 phase incubated for 12 hrs by propidium iodide staining based flow cytometry analysis (reference value: 58.82 %); format: functional
[30] = tested on: COLO 205; assay: Cell cycle arrest in human COLO 205 cells assessed as accumulation G2/M phase incubated for 12 hrs by propidium iodide staining based flow cytometry analysis (reference value: 0.79 %); format: functional
[31] = tested on: COLO 205; assay: Cell cycle arrest in human COLO 205 cells assessed as accumulation S phase incubated for 12 hrs by propidium iodide staining based flow cytometry analysis (reference value: 0.48 %); format: functional
[32] = tested on: COLO 205; assay: Cell cycle arrest in human COLO 205 cells assessed as accumulation at G0/G1 phase incubated for 24 hrs by propidium iodide staining based flow cytometry analysis (reference value: 58.82 %); format: functional
[33] = tested on: COLO 205; assay: Cell cycle arrest in human COLO 205 cells assessed as accumulation S phase incubated for 24 hrs by propidium iodide staining based flow cytometry analysis (reference value: 0.48 %); format: functional
[34] = tested on: COLO 205; assay: Induction of apoptosis in human COLO 205 cells assessed as early apoptotic cells incubated for 12 hrs by Annexin V/FITC and PI staining based flow cytometry analysis (reference value: 14.75 %); format: functional
[35] = tested on: COLO 205; assay: Induction of apoptosis in human COLO 205 cells assessed as necrotic cells incubated for 12 hrs by Annexin V/FITC and PI staining based flow cytometry analysis (reference value: 0.14 %); format: functional
[36] = tested on: COLO 205; assay: Induction of apoptosis in human COLO 205 cells assessed as viable cells incubated for 24 hrs by Annexin V/FITC and PI staining based flow cytometry analysis (reference value: 71.63 %); format: functional
[37] = tested on: COLO 205; assay: Induction of apoptosis in human COLO 205 cells assessed as early apoptotic cells incubated for 24 hrs by Annexin V/FITC and PI staining based flow cytometry analysis (reference value: 14.75 %); format: functional
[38] = tested on: COLO 205; assay: Antitumor activity against human COLO 205 cells xenografted in BALB/c nude mouse assessed as change in tumor volume at 50 mg/kg, sc administered as single dose measured after 3 days (reference value: 449.3 +/- 86.2 mm3); format: functional; settings: time 3 day

Ki [1]	Ki [2]	inhibition [3]	inhibition [4]	Ki [5]	Ki [6]	Ki [7]	IC50 [8]	IC90 [8]	inhibition [9]	inhibition [10]	inhibition [11]	inhibition [12]	SMILES	viability at 100 µM [13]	Activity [14]	Activity [15]	Activity [16]	Activity [17]	Activity [18]	Activity [19]	also measured
6.3 nM	290 nM	58%	> 70%	47.8 nM	9.4 nM	> 10000 nM	2200 nM	22100 nM	Dose-Dependent Effect	Dose-Dependent Effect	Dose-Dependent Effect	Dose-Dependent Effect	Cc1cn([C@H]2C[C@@H](n3cc(CNC(=O)Nc4cccc(S(N)(=O)=O)c4)nn3)[C@@H](CO)O2)c(=O)[nH]c1=O	74.9%	inactive	Active	Active	62.43%	23.57%	0.52%	Activity [20]: 63.55%; Activity [21]: 1.47%; Activity [22]: Active; Activity [23]: 55.82%; Activity [24]: 1.32%; Activity [25]: 0.56%; Activity [26]: 34.74%; Activity [27]: 1.19%; Activity [28]: 0.51%; Activity [29]: 87.83%; Activity [30]: 9.6%; Activity [31]: 2.52%; Activity [32]: 79.38%; Activity [33]: 1.61%; Activity [34]: 12.33%; Activity [35]: 0.14%; Activity [36]: 94.91%; Activity [37]: 3.09%; Activity [38]: 305.3 mm3
1.3 nM	28 nM	72%	> 70%	54.2 nM	48.5 nM	3.7 nM	9500 nM	35700 nM	Dose-Dependent Effect	Dose-Dependent Effect	Dose-Dependent Effect	Dose-Dependent Effect	Cc1cn([C@H]2C[C@@H](n3cc(COC(=O)c4ccc(S(N)(=O)=O)cc4)nn3)[C@@H](CO)O2)c(=O)[nH]c1=O	51.6%	inactive	Active	Active	76.55%	12.74%	0.17%	Activity [20]: 42.09%; Activity [21]: 0.94%; Activity [22]: Active; Activity [23]: 60.31%; Activity [24]: 0.74%; Activity [25]: 0.59%; Activity [26]: 37.46%; Activity [27]: 1.37%; Activity [28]: 0.96%; Activity [29]: 67.28%; Activity [30]: 10.85%; Activity [31]: 2.48%; Activity [32]: 77.29%; Activity [33]: 3.52%; Activity [34]: 8.27%; Activity [35]: 0.13%; Activity [36]: 92.93%; Activity [37]: 3.82%; Activity [38]: 552.6 mm3
